≈ marks a conversion by molar mass, not a printed value. Read-outs that look alike come from different tables or passages of the source. Where only a bound is given, the exact number is not on record here.

One assay deals with A. fumigatus. The assay can be described thus: In vitro antimycotic activity, macromethod of scalar broth dilutions (SDB). The class given is cell-based. Particulars: Aspergillus fumigatus, 168 h. The protocol: (§1) The determination of the activity inhibiting the growth of mycetes was evaluated by the macromethod of scalar brothdilutions in geometrical progression (M.R. McGinnis and M.G. Rinaldi, "Antifungal drugs: mechanisms of action, drug resistance, susceptibility testing and assay of activity in biological fluids", in Antibiotic in Laboratory Medicine, Ed. V. Lorian, Baltimora 1991).
(§2) As culture media Yeast Nitrogen Base broth (YNB) and Sabouraud Dextrose broth (SDB) were used for yeasts and moulds, respectively.
(§3) The results obtained in SDB (after incubation at 28°C for 7 days) were expressed as minimum inhibiting concentrations (MIC) the growth of mycetes, while those obtained in YNB (after incubation at 35°C for 48 hours) were expressed as concentrations able to inhibit at 50% (IC50) the growth of the yeast.
(§4) As reference compounds Fluconazole, Itraconazole and Genaconazole were used.

The subject of a further assay is T.mentagrophytes. The assay is described as above. The class given is cell-based, Trychophyton mentagrophytes. Particulars: Trichophyton mentagrophytes, 168 h; T.mentagrophytes; SDB, incubation at 28°C for 7 days; read-out: MIC. How it is done:
as §1, §2, §3, §4

The test system of the next assay is C. albicans 1040. Description: In vitro antimycotic activity, macromethod of scalar broth dilutions (YNB). To be noted: Candida albicans; C. albicans 1040; YNB, incubation at 35°C for 48 hours; read-out: IC50. Type of assay: cell-based, Candida albicans. How it is done: as §1, §2, §3, §4
A further assay deals with C. neoformans. The description is as above. The class given is cell-based. To be noted: Cryptococcus neoformans; C. neoformans; YNB, incubation at 35°C for 48 hours; read-out: IC50. The protocol:
as §1, §2, §3, §4

The next assay has as its system Candida albicans 1040. Description: In vivo antimycotic activity in mice experimentally infected by C. albicans, oral route. Details: species or system Charles River white mice (CD1 strain). Particulars: for PD50 at 8th day / PD50 at 14th day: oral route, probits analysis; for PD50 at 8th day: 8 days from the infection; for PD50 at 14th day: 14 days from the infection; for antimycotic activity in comparison with the compounds of formula II, statement in words: test not named, only in vivo data are printed for R1 and R2. The protocol: Charles River white mice (CD1 strain) weighing from 23 to 25 g, normo-feeded with standard diet and water ad libitum were used.
A suspension (0.2 ml containing 2.5x10^7 cells/ml) of Candida albicans 1040 in physiologic solution was injected to each animal by venous route. Immediately after the infection and after 4, 24 and 48 hours, the animals received by oral route (in arabic gum at 2%) doses increasing in a geometrical progression of the compound to be tested. The infected group was used as control.
The observation of the mortality of the mice was prolonged up to 14 days. From the number of survived animals for each concentration the average protective dose (DP50) was calculated by probits analysis (L.Lison - "Statistica applicata alla biologia sperimentale. La programmazione dell'esperimento e l'analisi dei risultati" - Casa Editrice Ambrosiana, 1961).
Compounds R1 and R2 were used as comparative compounds.
Fluconazole and Itraconazole were used as reference compounds.

Assay [1] relates to C. spp * (5) (C. parapsilosis, lusitaniae, kefyr). Description: In vitro antimycotic activity, strain panel (Table 2). The class given is cell-based. Particulars: Lodderomyces parapsilosis, C. parapsilosis, lusitaniae, kefyr, 5 strains. The protocol:
as §1, §2, §3, §4
(§5) Note to the table: MIC expressed as µg/ml Within brackets the number of tested strains Table 3

The next assay concerns C. albicans (7). The assay is described as above. To be noted: Candida albicans, C. albicans, 7 strains. The class given is cell-based. How it is done:
as §1, §2, §3, §4, §5

The next assay has as its system Trichosporon sp. (1). The assay is described as above. To be noted: Trichosporon sp., 1 strain; single value under head MIC50 MIC90; read-out: MIC. Type of assay: cell-based. How it is done:
as §1, §2, §3, §4, §5

The test system of a further assay is B. capitatus (1). Described as above. The class given is cell-based. Particulars: Magnusiomyces capitatus; B. capitatus, 1 strain; single value under head MIC50 MIC90; read-out: MIC. The protocol:
as §1, §2, §3, §4, §5

The subject of a further assay is C. neoformans (4). Described as above. Type of assay: cell-based. Particulars: Cryptococcus neoformans, C. neoformans, 4 strains. The protocol:
as §1, §2, §3, §4, §5

The subject of another assay is C. tropicalis (2). Described as above. Particulars: Candida tropicalis; C. tropicalis, 2 strains; single value or range printed under head MIC50 MIC90; read-out: MIC. The class given is cell-based. The protocol:
as §1, §2, §3, §4, §5

Setting [2] is: A. fumigatus, SDB, incubation at 28°C for 7 days, read-out: MIC.

For the compound `CC(C)(COC(F)(F)C(F)C(F)(F)F)C(O)(Cn1cncn1)c1ccc(F)cc1F` (racemic) [Compound 9], the MIC in the assay on A. fumigatus (setting [2]) was above 128 µg/mL; in the assay on T.mentagrophytes, 2 µg/mL (≈ 4.47 µM). The results for the IC50 in the assay on C. albicans 1040 and with C. neoformans were 0.0156 µg/mL (≈ 0.0349 µM) and 0.125 µg/mL (≈ 0.279 µM), respectively. In addition, the “PD50 at 8th day” value in the assay with Candida albicans 1040 amounted to 0.89 mg/kg/os. Moreover, the “PD50 at 14th day” value in the assay on Candida albicans 1040 is 1.57 mg/kg/os.

As for `CC(C)(COCC(F)(F)C(F)F)C(O)(Cn1cncn1)c1ccc(F)cc1F` (racemic) [Compound 10, (±)-1-(1H-1,2,4-triazolyl)-2-hydroxy-2-(2,4-difluorophenyl)-3,3-dimethyl-4-(2,2,3,3-tetrafluoropropoxy)butane], the MIC with A. fumigatus (setting [2]) was determined as 8 µg/mL (≈ 19.4 µM); with T.mentagrophytes it was 0.5 µg/mL (≈ 1.22 µM). Further, the IC50 was 0.0156 µg/mL (≈ 0.0379 µM) in the assay on C. albicans 1040 and 0.0625 µg/mL (≈ 0.152 µM) in the assay on C. neoformans.

Take `CC(C)(COC(F)(F)F)C(O)(Cn1cncn1)c1ccc(F)cc1F` (racemic) [Compound 12, (±)-1-(1H-1,2,4-triazolyl)-2-hydroxy-2-(2,4-difluorophenyl)-3,3-dimethyl-4-trifluoromethoxy-butane]: the MIC in the assay on A. fumigatus (setting [2]) came out at 4 µg/mL (≈ 10.9 µM); in the assay on T.mentagrophytes, 0.125 µg/mL (≈ 0.342 µM). Further, the IC50 in the assay on C. albicans 1040 and in the assay on C. neoformans was 0.0156 µg/mL (≈ 0.0427 µM) in each case. Besides, in the assay with Candida albicans 1040, the “PD50 at 8th day” value was 1.09 mg/kg/os. Besides, the “PD50 at 14th day” value in the assay on Candida albicans 1040 was determined as 1.39 mg/kg/os.

Consider `OC(Cn1cncn1)(Cn1cncn1)c1ccc(F)cc1F` [Fluconazole, reference compound], for which the MIC was above 128 µg/mL against A. fumigatus; 16 µg/mL (≈ 52.2 µM) in the assay with T.mentagrophytes; 32 µg/mL (≈ 104 µM) in the assay on Trichosporon sp. (1); 4 µg/mL (≈ 13.1 µM) in the assay with B. capitatus (1); 4 to 16 µg/mL (≈ 13.1 to 52.2 µM) with C. tropicalis (2). Further, the MIC50 came to 1 µg/mL (≈ 3.27 µM) in assay [1] (read-out: MIC50), 4 µg/mL (≈ 13.1 µM) with C. albicans (7) (read-out: MIC50) and 1 µg/mL (≈ 3.27 µM) in the assay with C. neoformans (4) (read-out: MIC50). Further, the MIC90 in [1] (read-out: MIC90) amounted to 2 µg/mL (≈ 6.53 µM); with C. albicans (7) (read-out: MIC90), 32 µg/mL (≈ 104 µM); in the assay on C. neoformans (4) (read-out: MIC90), 32 µg/mL (≈ 104 µM). The IC50 in the assay on C. albicans 1040 worked out at 0.5 µg/mL (≈ 1.63 µM); in the assay on C. neoformans it was 2 µg/mL (≈ 6.53 µM). In the assay with Candida albicans 1040, the “PD50 at 8th day” value turned out to be 0.125 mg/kg/os. Moreover, the “PD50 at 14th day” value with Candida albicans 1040 is given as 0.61 mg/kg/os.

In the case of “(±)-1-(1H-1,2,4-triazolyl)-2-hydroxy-2-(2,4-difluorophenyl)-3,3-dimethyl-4-ethoxy-butane [Compound R1, reference compound]”, in the assay on Candida albicans 1040, the “PD50 at 8th day” value was above 4 mg/kg/os; the “PD50 at 14th day” value was above 4 mg/kg/os; the “antimycotic activity in comparison with the compounds of formula II, statement in words” value was “substantially inactive”.

For the compound “(±)-1-(1H-1,2,4-triazolyl)-2-hydroxy-2-(2,4-difluorophenyl)-3-(2,2,3,3-tetrafluoropropoxy)butane [Compound R2, reference compound]”, in the assay on Candida albicans 1040, the “PD50 at 8th day” value was above 4 mg/kg/os; the “PD50 at 14th day” value is above 4 mg/kg/os; the “antimycotic activity in comparison with the compounds of formula II, statement in words” value is “substantially inactive”.
